Experimental data published in the supplement of paper PMC10307832.

How the values were obtained:
Test in all cases: relative viability (nuclei count vs DMSO), 5 days (fraction); higher = more cells survive
SW 1573 = test system: SW 1573
How it was run: (§1)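 Lung cancer cell lines, seeded in 1536-well plates, were treated the following day by pin tool with a single drug or with five library-drug doses (not always all listed) in √10 steps on top of a fixed anchor-drug dose. Cells were fixed and nuclei stained in one step after 5 days, and nuclei were counted. Relative viability is the nuclei count for treated wells divided by that for vehicle wells, reported as medians of duplicate plates.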

NCI-H1395 = test system: NCI-H1395
How it was run: as §1

NCI-H2228 = test system: NCI-H2228
How it was run: as §1

HCC-827 = test system: HCC-827
How it was run: as §1

CAL-12T = test system: CAL-12T
How it was run: as §1

NCI-H1437 = test system: NCI-H1437
How it was run: as §1

NCI-H23 = test system: NCI-H23
How it was run: as §1

NCI-H522 = test system: NCI-H522
How it was run: as §1

EMC-BAC-2 = test system: EMC-BAC-2
How it was run: as §1

NCI-H1755 = test system: NCI-H1755
How it was run: as §1

NCI-H1792 = test system: NCI-H1792
How it was run: as §1

HOP-62 = test system: HOP-62
How it was run: as §1

NCI-H727 = test system: NCI-H727
How it was run: as §1

HCC-366 = test system: HCC-366
How it was run: as §1

SK-LU-1 = test system: SK-LU-1
How it was run: as §1

NCI-H460 = test system: NCI-H460
How it was run: as §1

COR-L 105 = test system: COR-L 105
How it was run: as §1

NCI-H2009 = test system: NCI-H2009
How it was run: as §1

A-427 = test system: A-427
How it was run: as §1

NCI-H1915 = test system: NCI-H1915
How it was run: as §1

LCLC-103H = test system: LCLC-103H
How it was run: as §1

HARA = test system: HARA
How it was run: as §1

With O=c1cc(N2CCOCC2)oc2c(-c3cccc4c3sc3ccccc34)cccc12 + N=C(N)NC(=N)NCCc1ccccc1 [Phenformin] (partner 250 µM) the relative viability (SW 1573; first compound 0.01 µM) was 0.451, the relative viability (SW 1573; first compound 0.03162 µM) was 0.395 and the relative viability (SW 1573; first compound 0.1 µM) was 0.426. The relative viability (SW 1573; first compound 0.3162 µM) was 0.326, the relative viability (SW 1573; first compound 1 µM) was 0.343 and the relative viability (NCI-H1395; first compound 0.01 µM) was 0.435. The relative viability (NCI-H1395; first compound 0.03162 µM) was 0.45, the relative viability (NCI-H1395; first compound 0.1 µM) was 0.417 and the relative viability (NCI-H1395; first compound 0.3162 µM) was 0.461. For the same compound, the relative viability (NCI-H1395; first compound 1 µM) was 0.447, the relative viability (NCI-H2228; first compound 0.01 µM) was 0.372 and the relative viability (NCI-H2228; first compound 0.03162 µM) was 0.391. For the same compound, the relative viability (NCI-H2228; first compound 0.1 µM) was 0.262, the relative viability (NCI-H2228; first compound 0.3162 µM) was 0.259 and the relative viability (NCI-H2228; first compound 1 µM) was 0.37. It also gave a relative viability (HCC-827; first compound 0.01 µM) of 0.368, a relative viability (HCC-827; first compound 0.03162 µM) of 0.391 and a relative viability (HCC-827; first compound 0.1 µM) of 0.396. It also gave a relative viability (HCC-827; first compound 0.3162 µM) of 0.405, a relative viability (HCC-827; first compound 1 µM) of 0.402 and a relative viability (CAL-12T; first compound 0.01 µM) of 0.519. The relative viability (CAL-12T; first compound 0.03162 µM) was 0.629, the relative viability (CAL-12T; first compound 0.1 µM) was 0.607 and the relative viability (CAL-12T; first compound 0.3162 µM) was 0.575. For the same compound, the relative viability (CAL-12T; first compound 1 µM) was 0.547, the relative viability (NCI-H1437; first compound 0.01 µM) was 0.32 and the relative viability (NCI-H1437; first compound 0.03162 µM) was 0.323. It also gave a relative viability (NCI-H1437; first compound 0.1 µM) of 0.298, a relative viability (NCI-H1437; first compound 0.3162 µM) of 0.338 and a relative viability (NCI-H1437; first compound 1 µM) of 0.282. It also gave a relative viability (NCI-H23; first compound 0.01 µM) of 0.83, a relative viability (NCI-H23; first compound 0.03162 µM) of 0.801 and a relative viability (NCI-H23; first compound 0.3162 µM) of 0.792. For the same compound, the relative viability (NCI-H23; first compound 1 µM) was 0.806, the relative viability (NCI-H522; first compound 0.01 µM) was 0.724 and the relative viability (NCI-H522; first compound 0.03162 µM) was 0.662. For the same compound, the relative viability (NCI-H522; first compound 0.1 µM) was 0.572, the relative viability (NCI-H522; first compound 0.3162 µM) was 0.621 and the relative viability (NCI-H522; first compound 1 µM) was 0.618. It also gave a relative viability (EMC-BAC-2; first compound 0.01 µM) of 0.423, a relative viability (EMC-BAC-2; first compound 0.03162 µM) of 0.57 and a relative viability (EMC-BAC-2; first compound 0.1 µM) of 0.55. The relative viability (EMC-BAC-2; first compound 0.3162 µM) was 0.556, the relative viability (EMC-BAC-2; first compound 1 µM) was 0.564 and the relative viability (NCI-H1755; first compound 0.01 µM) was 0.652. It also gave a relative viability (NCI-H1755; first compound 0.03162 µM) of 0.694, a relative viability (NCI-H1755; first compound 0.1 µM) of 0.655 and a relative viability (NCI-H1755; first compound 0.3162 µM) of 0.614. It also gave a relative viability (NCI-H1755; first compound 1 µM) of 0.605, a relative viability (NCI-H1792; first compound 0.01 µM) of 0.26 and a relative viability (NCI-H1792; first compound 0.03162 µM) of 0.202. For the same compound, the relative viability (NCI-H1792; first compound 0.1 µM) was 0.213, the relative viability (NCI-H1792; first compound 0.3162 µM) was 0.32 and the relative viability (NCI-H1792; first compound 1 µM) was 0.184. For the same compound, the relative viability (HOP-62; first compound 0.01 µM) was 0.555, the relative viability (HOP-62; first compound 0.03162 µM) was 0.735 and the relative viability (HOP-62; first compound 0.1 µM) was 0.671. For the same compound, the relative viability (HOP-62; first compound 0.3162 µM) was 0.575, the relative viability (HOP-62; first compound 1 µM) was 0.704 and the relative viability (NCI-H727; first compound 0.01 µM) was 0.645. For the same compound, the relative viability (NCI-H727; first compound 0.03162 µM) was 0.546, the relative viability (NCI-H727; first compound 0.1 µM) was 0.475 and the relative viability (NCI-H727; first compound 0.3162 µM) was 0.641. It also gave a relative viability (NCI-H727; first compound 1 µM) of 0.581, a relative viability (HCC-366; first compound 0.01 µM) of 0.608 and a relative viability (HCC-366; first compound 0.03162 µM) of 0.697. The relative viability (HCC-366; first compound 0.1 µM) was 0.661, the relative viability (HCC-366; first compound 0.3162 µM) was 0.601 and the relative viability (HCC-366; first compound 1 µM) was 0.668. For the same compound, the relative viability (SK-LU-1; first compound 0.01 µM) was 0.573, the relative viability (SK-LU-1; first compound 0.03162 µM) was 0.551 and the relative viability (SK-LU-1; first compound 0.1 µM) was 0.531. The relative viability (SK-LU-1; first compound 0.3162 µM) was 0.509, the relative viability (SK-LU-1; first compound 1 µM) was 0.45 and the relative viability (NCI-H460; first compound 0.01 µM) was 0.285. The relative viability (NCI-H460; first compound 0.03162 µM) was 0.522, the relative viability (NCI-H460; first compound 0.1 µM) was 0.558 and the relative viability (NCI-H460; first compound 0.3162 µM) was 0.505. It also gave a relative viability (NCI-H460; first compound 1 µM) of 0.544, a relative viability (COR-L 105; first compound 0.01 µM) of 0.462 and a relative viability (COR-L 105; first compound 0.03162 µM) of 0.497. The relative viability (COR-L 105; first compound 0.1 µM) was 0.607, the relative viability (COR-L 105; first compound 0.3162 µM) was 0.568 and the relative viability (COR-L 105; first compound 1 µM) was 0.383. It also gave a relative viability (NCI-H2009; first compound 0.01 µM) of 0.471, a relative viability (NCI-H2009; first compound 0.03162 µM) of 0.504 and a relative viability (NCI-H2009; first compound 0.1 µM) of 0.487. For the same compound, the relative viability (NCI-H2009; first compound 0.3162 µM) was 0.492, the relative viability (NCI-H2009; first compound 1 µM) was 0.464 and the relative viability (A-427; first compound 0.01 µM) was 0.31. The relative viability (A-427; first compound 0.03162 µM) was 0.294, the relative viability (A-427; first compound 0.1 µM) was 0.315 and the relative viability (A-427; first compound 0.3162 µM) was 0.313. It also gave a relative viability (A-427; first compound 1 µM) of 0.341, a relative viability (NCI-H1915; first compound 0.01 µM) of 0.381 and a relative viability (NCI-H1915; first compound 0.03162 µM) of 0.387. The relative viability (NCI-H1915; first compound 0.1 µM) was 0.371, the relative viability (NCI-H1915; first compound 0.3162 µM) was 0.386 and the relative viability (NCI-H1915; first compound 1 µM) was 0.369. It also gave a relative viability (LCLC-103H; first compound 0.01 µM) of 0.317, a relative viability (LCLC-103H; first compound 0.03162 µM) of 0.31 and a relative viability (LCLC-103H; first compound 0.1 µM) of 0.331. It also gave a relative viability (LCLC-103H; first compound 0.3162 µM) of 0.377, a relative viability (LCLC-103H; first compound 1 µM) of 0.341 and a relative viability (HARA; first compound 0.01 µM) of 0.414. It also gave a relative viability (HARA; first compound 0.03162 µM) of 0.472, a relative viability (HARA; first compound 0.1 µM) of 0.416 and a relative viability (HARA; first compound 0.3162 µM) of 0.502. The relative viability (HARA; first compound 1 µM) was 0.482.
